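Cultured in 96-well plates, cells were exposed to test compound for 48 hours across five concentrations. The concentration for full growth arrest is given as TGI.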
Assays:
Test in all cases: inhibition of tumour cell growth, NCI panel, 48 h
[1] = test system: MDA-N
[2] = test system: SF-295 CNS
[3] = test system: HCT-116 colon
[4] = test system: 786-0 renal
[5] = test system: SW-620 colon
[6] = test system: NCI/ADR-RES ovarian
[7] = test system: HS 578T breast
[8] = test system: PC-3 prostate
[9] = test system: MDA-MB-231 breast
[10] = test system: SK-MEL-2 melanoma
[11] = test system: SN12C renal
[12] = test system: MOLT-4 leukemia
[13] = test system: LOX IMVI melanoma
[14] = test system: MALME-3M melanoma
[15] = test system: EKVX NSCLC
[16] = test system: MCF7 breast
[17] = test system: A549 NSCLC
[18] = test system: SF-539 CNS
[19] = test system: OVCAR-5 ovarian
[20] = test system: HOP-92 NSCLC
[21] = test system: K-562 leukemia
[22] = test system: UACC-257 melanoma
[23] = test system: M14 melanoma
[24] = test system: OVCAR-3 ovarian
[25] = test system: HCC-2998 colon
[26] = test system: HCT-15 colon
[27] = test system: A498 renal
[28] = test system: HT29 colon
[29] = test system: NCI-H460 lung
[30] = test system: OVCAR-8 ovarian
[31] = test system: DU-145 prostate
[32] = test system: HL-60(TB) leukemia
[33] = test system: NCI-H226 lung
[34] = test system: SR leukemia
[35] = test system: ACHN renal
[36] = test system: KM12 colon
[37] = test system: T-47D breast
[38] = test system: MDA-MB-435
[39] = test system: SK-MEL-28 melanoma
[40] = test system: SF-268 CNS
[41] = test system: NCI-H23 lung
[42] = test system: OVCAR-4 ovarian
[43] = test system: U251 CNS
[44] = test system: UO-31 renal
[45] = test system: NCI-H522 lung
[46] = test system: HOP-62 NSCLC
[47] = test system: BT-549 breast
[48] = test system: CCRF-CEM leukemia
[49] = test system: SNB-19 CNS
[50] = test system: SNB-75 CNS
[51] = test system: COLO 205 colon
[52] = test system: TK-10 renal
[53] = test system: RPMI-8226 leukemia
[54] = test system: SK-MEL-5 melanoma
[55] = test system: SK-OV-3 ovarian
[56] = test system: CAKI-1 renal
[57] = test system: IGROV1 ovarian
[58] = test system: RXF 393 renal
[59] = test system: UACC-62 melanoma

## CCOC(=O)N1CCN(c2c(N)nc(C)[nH]c2=O)CC1
[1]
  TGI: > 100 µM
[2]
  TGI: > 100 µM
[3]
  TGI: > 100 µM
[4]
  TGI: > 100 µM
[5]
  TGI: > 100 µM
[6]
  TGI: > 100 µM
[7]
  TGI: > 100 µM
[8]
  TGI: > 100 µM
[9]
  TGI: > 100 µM
[10]
  TGI: > 100 µM
[11]
  TGI: > 100 µM
[12]
  TGI: > 100 µM
[13]
  TGI: > 100 µM
[14]
  TGI: > 100 µM
[15]
  TGI: > 100 µM
[16]
  TGI: > 100 µM
[17]
  TGI: > 100 µM
[18]
  TGI: > 100 µM
[19]
  TGI: > 100 µM
[20]
  TGI: > 100 µM
[21]
  TGI: > 100 µM
[22]
  TGI: > 100 µM
[23]
  TGI: > 100 µM
[24]
  TGI: > 100 µM
[25]
  TGI: > 100 µM
[26]
  TGI: > 100 µM
[27]
  TGI: > 100 µM
[28]
  TGI: > 100 µM
[29]
  TGI: > 100 µM
[30]
  TGI: > 100 µM
[31]
  TGI: > 100 µM
[32]
  TGI: > 100 µM
[33]
  TGI: > 100 µM
[34]
  TGI: > 100 µM
[35]
  TGI: > 100 µM
[36]
  TGI: > 100 µM
[37]
  TGI: > 100 µM
[38]
  TGI: > 100 µM
[39]
  TGI: > 100 µM
[40]
  TGI: > 100 µM
[41]
  TGI: > 100 µM
[42]
  TGI: > 100 µM
[43]
  TGI: > 100 µM
[44]
  TGI: > 100 µM
[45]
  TGI: > 100 µM
[46]
  TGI: > 100 µM
[47]
  TGI: > 100 µM
[48]
  TGI: > 100 µM
[49]
  TGI: > 100 µM
[50]
  TGI: > 100 µM
[51]
  TGI: > 100 µM
[52]
  TGI: > 100 µM
[53]
  TGI: > 100 µM

## NC(=O)c1ccc[n+](C2=C([O-])c3ccccc3C(=O)/C2=N\S(=O)(=O)c2ccccc2)c1
[1]
  TGI: 31 µM
[2]
  TGI: 31.5 µM
[54]
  TGI: 21.3 µM
[3]
  TGI: 32.4 µM
[4]
  TGI: 32.3 µM
[5]
  TGI: 30.7 µM
[6]
  TGI: 36.3 µM
[55]
  TGI: > 100 µM
[7]
  TGI: 47.3 µM
[8]
  TGI: 30.2 µM
[9]
  TGI: 34.5 µM
[10]
  TGI: 25.7 µM
[11]
  TGI: 30.9 µM
[12]
  TGI: 81.5 µM
[13]
  TGI: 29.5 µM
[14]
  TGI: 20.1 µM
[15]
  TGI: 27.8 µM
[16]
  TGI: 29.6 µM
[17]
  TGI: 37.7 µM
[18]
  TGI: 32.2 µM
[19]
  TGI: 33.3 µM
[20]
  TGI: 26.5 µM
[21]
  TGI: > 100 µM
[56]
  TGI: 37.1 µM
[22]
  TGI: 27.7 µM
[57]
  TGI: 24.5 µM
[23]
  TGI: 29.1 µM
[24]
  TGI: 17 µM
[25]
  TGI: 22.6 µM
[26]
  TGI: 95.9 µM
[28]
  TGI: 34 µM
[29]
  TGI: 47.9 µM
[30]
  TGI: 28.4 µM
[31]
  TGI: 34 µM
[58]
  TGI: 29.5 µM
[32]
  TGI: > 100 µM
[33]
  TGI: 28.9 µM
[34]
  TGI: > 100 µM
[35]
  TGI: 26.4 µM
[36]
  TGI: 26.7 µM
[37]
  TGI: 53.6 µM
[38]
  TGI: 17.2 µM
[39]
  TGI: 30.2 µM
[40]
  TGI: 31.3 µM
[41]
  TGI: 30.6 µM
[42]
  TGI: 18.9 µM
[43]
  TGI: 29 µM
[44]
  TGI: 27.9 µM
[45]
  TGI: 24.1 µM
[46]
  TGI: 33 µM
[47]
  TGI: 28.8 µM
[48]
  TGI: > 100 µM
[59]
  TGI: 32.1 µM
[49]
  TGI: 29.9 µM
[50]
  TGI: 28.1 µM
[51]
  TGI: 30.2 µM
[52]
  TGI: > 100 µM
[53]
  TGI: > 100 µM

From PubChem BioAssay (NCI)
